Test results as given in US12435072B2, “Compounds” (Vicore Pharma AB, priority 2019, dated 2025).
Read-outs that look alike come from different tables or passages of the source.

Assays:
[1] = Metabolic stability in pooled human liver microsomes; format: in vitro ADME; settings: pooled human liver microsomes 0.5 mg/ml, 1 μM test compound, 37° C.
Protocol: Pooled human liver microsomes in PBS at a concentration of 0.5 mg/ml was incubated with or without 1 mM NADPH for 70 min at 37° C. Test compound was added after 10 minutes to a final concentration of 1 μM. Samples were withdrawn at 0, 5, 15 and 60 minutes and added to test tubes containing acetonitrile, to stop the reaction, and with terfenadine, used as internal standard. After centrifugation at 10 000×g for 5 minutes the supernatant was diluted 1:1 with 1% formic acid. Samples were separated on a reverse phase column and detected by triple quadrupole MSMS (Agilant model 6540). The concentration of the parent compound at the different time points was measured with an external standard curve using terfenadine as internal standard and the initial metabolic rate in the presence or absence of NADPH calculated.

CYP1A = target: T1, CYP1A (Homo sapiens, UniProt P05177); test: CYP inhibition in human liver microsomes, CYP1A; format: in vitro ADME; settings: probe phenacetin, substrate phenacetin, read-out: CYP1A Inh %
T1 construct: incubated with human liver microsomes; tissue Eurofins ITEMG232; host or cells: human liver microsomes
T1 sequence (P05177 1-516): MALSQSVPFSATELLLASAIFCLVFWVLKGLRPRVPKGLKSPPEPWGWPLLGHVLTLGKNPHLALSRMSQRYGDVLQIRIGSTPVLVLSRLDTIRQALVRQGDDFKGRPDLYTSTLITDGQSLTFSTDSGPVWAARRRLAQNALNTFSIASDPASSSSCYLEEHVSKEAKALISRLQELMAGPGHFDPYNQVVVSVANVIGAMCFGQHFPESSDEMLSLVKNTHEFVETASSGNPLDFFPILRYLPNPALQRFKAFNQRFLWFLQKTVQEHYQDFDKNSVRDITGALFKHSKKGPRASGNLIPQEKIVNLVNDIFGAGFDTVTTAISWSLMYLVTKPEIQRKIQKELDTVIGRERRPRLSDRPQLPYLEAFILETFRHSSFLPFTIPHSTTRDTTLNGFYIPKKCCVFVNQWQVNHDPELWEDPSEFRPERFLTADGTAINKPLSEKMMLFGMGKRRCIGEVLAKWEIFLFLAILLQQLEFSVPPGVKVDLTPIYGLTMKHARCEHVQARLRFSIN
Protocol: The following substrates were used: CYP1A phenacetin, CYP2B6 bupropion, CYP2C8 paclitaxel and amodiaquine, CYP2C9 diclofenac, CYP2C19 omeprazole, CYP2D6 dextromethorphan, CYP3A midazolam and testosterone. At the end of the incubation, the formation of metabolite was monitored by HPLC-MS/MS as the peak area response.

[2] = with 1 mM NADPH, read-out: T1/2, + NaDPH
[3] = without NADPH, read-out: T1/2, no NaDPH

Structure (SMILES) | half-life at 1 μM [1, 2] | half-life at 1 μM [1, 3] | inhibition at 10 µM (CYP1A)
Cc1nccn1Cc1ccc(-c2cc(CC(C)C)sc2S(=O)(=O)NC(=O)NCCCC(F)(F)F)cc1 [Example 5, 3-(5-isobutyl-3-{p-[(2-Methyl-1H-imidazol-1-yl)methyl]phenyl}-2-thienylsulfonyl)-1-(4,4,4-trifluorobutyl)-urea] | 0.417 h | > 1 h | 7.3%
CCc1nccn1Cc1ccc(-c2cc(CC(C)C)sc2S(=O)(=O)NC(=O)NCCOC)cc1 [Example 7, 3-(3-{p-[(2-Ethyl-1H-imidazol-1-yl)methyl]phenyl}-5-isobutyl-2-thienylsulfonyl)-1-(2-methoxy-ethyl)urea] | > 1 h | > 1 h | 10.6%
Cc1nccn1Cc1ccc(-c2cc(CC(C)C)sc2S(=O)(=O)NC(=O)NCCC(F)(F)F)cc1F [Example 14, 3-(3-{3-Fluoro-4-[(2-methyl-1H-imidazol-1-yl)methyl]phenyl}-5-isobutyl-2-thienylsulfonyl)-1-(3,3,3-trifluoropropyl)urea] | 1.5 h | > 1 h | 13%
Cc1nccn1Cc1ccc(-c2cc(CC(C)C)sc2S(=O)(=O)NC(=O)NCc2cccs2)cc1F.O=C(O)C(F)(F)F [Example 35, 1-[(3-{3-fluoro-4-[(2-methyl-1H-imidazol-1-yl)methyl]phenyl}-5-(2-methylpropyl)thiophen-2-yl)sulfonyl]-3-[(thiophen-2-yl)methyl]urea trifluoroacetic acid] | 0.75 h | > 1 h | 20%
CCCCNC(=O)NS(=O)(=O)c1sc(CC(C)C)cc1-c1ccc(Cn2ccnc2C)cc1 [Example 4, 1-Butyl-3-(5-isobutyl-3-{p-[(2-methyl-1H-imidazol-1-yl)methyl]phenyl}-2-thienylsulfonyl)-urea] | 0.65 h | > 1 h | 10.5%
Cc1nccn1Cc1ccc(-c2cc(CC(C)C)sc2S(=O)(=O)NC(=O)NCc2ccccc2)cc1 [Example 1, 1-benzyl-3-[[5-isobutyl-3-[4-[(2-methylimidazol-1-yl)methyl]phenyl]-2-thienyl]sulfonyl]urea] | 0.4 h | > 1 h | 7.3%
CCc1nccn1Cc1ccc(-c2cc(CC(C)C)sc2S(=O)(=O)NC(=O)NCc2ccccc2)cc1 [Example 6, 1-Benzyl-3-(3-{p-[(2-ethyl-1H-imidazol-1-yl)methyl]phenyl}-5-isobutyl-2-thienylsulfonyl)-urea] | 0.4 h | > 1 h | 6.8%
Cc1nccn1Cc1ccc(-c2cc(CC(C)C)sc2S(=O)(=O)NC(=O)NCC2CCC(F)(F)CC2)cc1F.O=C(O)C(F)(F)F [Example 40, 1-[(4,4-difluorocyclohexyl)methyl]-3-[(3-{3-fluoro-4-[(2-methyl-1H-imidazol-1-yl)methyl]phenyl}-5-(2-methylpropyl)thiophen-2-yl)sulfonyl]urea trifluoroacetic acid] | 0.0667 h | > 1 h | -1%
Cc1nccn1Cc1ccc(-c2cc(CC(C)C)sc2S(=O)(=O)NC(=O)NCc2nccn2C)cc1F [Example 15, 1-(3-{3-Fluoro-4-[(2-methyl-1H-imidazol-1-yl)methyl]phenyl}-5-isobutyl-2-thienylsulfonyl)-3-[(1-methyl-1H-imidazol-2-yl)methyl]urea] | > 1 h | > 1 h | 20%
CCc1nccn1Cc1ccc(-c2cc(CC(C)C)sc2S(=O)(=O)NC(=O)NCc2ccc(F)cc2)cc1F.O=C(O)C(F)(F)F [Example 32, 3-[(3-{4-[(2-ethyl-1H-imidazol-1-yl)methyl]-3-fluorophenyl}-5-(2-methylpropyl)thiophen-2-yl)sulfonyl]-1-[(4-fluorophenyl)methyl] urea trifluoroacetic acid] | 0.117 h | > 1 h | -26%
CCCNC(=O)NS(=O)(=O)c1sc(CC(C)C)cc1-c1ccc(Cn2ccnc2CC)c(F)c1.O=C(O)C(F)(F)F [Example 33, 1-[(3-{4-[(2-ethyl-1H-imidazol-1-yl)methyl]-3-fluorophenyl}-5-(2-methylpropyl)thiophen-2-yl)sulfonyl]-3-propylurea trifluoroacetic acid] | > 1 h | > 1 h | 14%

The remaining lines, values ahead:

half-life at 1 μM [1, 2] | half-life at 1 μM [1, 3] | inhibition at 10 µM (CYP1A) | Structure (SMILES)
0.1 h | > 1 h | -6% | Cc1nccn1Cc1ccc(-c2cc(CC(C)C)sc2S(=O)(=O)NC(=O)NCc2ccc(F)c(F)c2)cc1F.O=C(O)C(F)(F)F [Example 34, 1-[(3,4-difluorophenyl)methyl]-3-[(3-{3-fluoro-4-[(2-methyl-1H-imidazol-1-yl)methyl]phenyl}-5-(2-methylpropyl)thiophen-2-yl)sulfonyl]urea trifluoroacetic acid]
> 1 h | > 1 h | 16% | Cc1nccn1Cc1ccc(-c2cc(CC(C)C)sc2S(=O)(=O)NC(=O)NCc2ccccn2)cc1F [Example 13, 3-(3-{3-Fluoro-4-[(2-methyl-1H-imidazol-1-yl)methyl]phenyl}-5-isobutyl-2-thienylsulfonyl)-1-[(2-pyridyl)methyl]urea]
> 1 h | > 1 h | 5% | Cc1nccn1Cc1ccc(-c2cc(CC(C)C)sc2S(=O)(=O)NC(=O)NCc2ccccn2)cc1 [Example 2, 3-(5-isobutyl-3-{p-[(2-Methyl-1H-imidazol-1-yl)methyl]phenyl}-2-thienylsulfonyl)-1-[(2-pyridyl)methyl]urea]
1 h | > 1 h | 8% | Cc1nccn1Cc1ccc(-c2cc(CC(C)C)sc2S(=O)(=O)NC(=O)NC(C)c2ccccn2)cc1F (stereo not drawn) [Example 25, 3-(3-{3-Fluoro-4-[(2-methyl-1H-imidazol-1-yl)methyl]phenyl}-5-isobutyl-2-thienylsulfonyl)-1-[1-(2-pyridyl)ethyl]urea]
0.45 h | > 1 h | 13% | Cc1nccn1Cc1ccc(-c2cc(CC(C)C)sc2S(=O)(=O)NC(=O)NCc2cc(Cl)ccn2)cc1F.O=C(O)C(F)(F)F [Example 38, 1-[(4-chloropyridin-2-yl)methyl]-3-[(3-{3-fluoro-4-[(2-methyl-1H-imidazol-1-yl)methyl]phenyl}-5-(2-methylpropyl)thiophen-2-yl)sulfonyl]urea trifluoroacetic acid]
0.717 h | > 1 h | 5% | CC(C)Cc1cc(-c2ccc(Cn3ccnc3C(C)C)c(F)c2)c(S(=O)(=O)NC(=O)NCCC(F)(F)F)s1.O=C(O)C(F)(F)F [Example 41, 1-{[3-(3-fluoro-4-{[2-(propan-2-yl)-1H-imidazol-1-yl]methyl}phenyl)-5-(2-methylpropyl)thiophen-2-yl]sulfonyl}-3-(3,3,3-trifluoropropyl)urea trifluoroacetic acid]
1 h | > 1 h | -2% | Cc1nccn1Cc1ccc(-c2cc(CC(C)C)sc2S(=O)(=O)NC(=O)NCC(C)C)cc1F.O=C(O)C(F)(F)F [Example 39, 1-[(3-{3-fluoro-4-[(2-methyl-1H-imidazol-1-yl)methyl]phenyl}-5-(2-methylpropyl)thiophen-2-yl)sulfonyl]-3-(2-methylpropyl)urea trifluoroacetic acid]
